ChEMBL document CHEMBL1145647, “Phenylcyclobutyl triazoles as selective inhibitors of 11beta-hydroxysteroid dehydrogenase type I” (Bioorg Med Chem Lett, 2008)

Columns and labels:
[1] = target: 11-beta-hydroxysteroid dehydrogenase 1 (Homo sapiens, UniProt P28845); experiment: Inhibition of human 11-beta-HSD1 by SPA assay
[2] = target: T1, 11-beta-hydroxysteroid dehydrogenase type 2 (Mus musculus, UniProt P51661); experiment: Inhibition of mouse 11-beta-HSD2 by SPA assay
T1 sequence (P51661 whole entry): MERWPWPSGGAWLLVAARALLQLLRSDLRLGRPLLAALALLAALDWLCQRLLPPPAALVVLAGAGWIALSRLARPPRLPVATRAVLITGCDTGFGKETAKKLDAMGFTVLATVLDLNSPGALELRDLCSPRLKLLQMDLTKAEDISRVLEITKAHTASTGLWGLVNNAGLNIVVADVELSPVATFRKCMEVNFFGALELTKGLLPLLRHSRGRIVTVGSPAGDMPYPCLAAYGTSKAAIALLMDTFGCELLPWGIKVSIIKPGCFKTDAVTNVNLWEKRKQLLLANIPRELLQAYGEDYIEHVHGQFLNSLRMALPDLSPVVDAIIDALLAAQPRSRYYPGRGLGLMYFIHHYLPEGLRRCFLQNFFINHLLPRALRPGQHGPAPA

[3] = target: 11-beta-hydroxysteroid dehydrogenase 1 (Mus musculus, UniProt P50172); experiment: Inhibition of mouse 11-beta-HSD1 by SPA assay
Chain of 11-beta-hydroxysteroid dehydrogenase 1 (Mus musculus, UniProt P50172) (P50172 whole entry): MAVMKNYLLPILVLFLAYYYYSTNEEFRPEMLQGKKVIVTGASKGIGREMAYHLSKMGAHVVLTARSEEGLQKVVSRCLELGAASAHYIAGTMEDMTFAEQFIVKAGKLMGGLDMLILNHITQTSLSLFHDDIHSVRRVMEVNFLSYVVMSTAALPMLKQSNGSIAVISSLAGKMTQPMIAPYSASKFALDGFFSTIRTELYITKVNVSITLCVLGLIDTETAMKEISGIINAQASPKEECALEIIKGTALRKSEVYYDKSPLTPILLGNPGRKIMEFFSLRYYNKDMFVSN

[4] = target: T2, 11-beta-hydroxysteroid dehydrogenase type 2 (Homo sapiens, UniProt P80365); experiment: Inhibition of human 11-beta-HSD2 by SPA assay
T2 sequence (P80365 whole entry): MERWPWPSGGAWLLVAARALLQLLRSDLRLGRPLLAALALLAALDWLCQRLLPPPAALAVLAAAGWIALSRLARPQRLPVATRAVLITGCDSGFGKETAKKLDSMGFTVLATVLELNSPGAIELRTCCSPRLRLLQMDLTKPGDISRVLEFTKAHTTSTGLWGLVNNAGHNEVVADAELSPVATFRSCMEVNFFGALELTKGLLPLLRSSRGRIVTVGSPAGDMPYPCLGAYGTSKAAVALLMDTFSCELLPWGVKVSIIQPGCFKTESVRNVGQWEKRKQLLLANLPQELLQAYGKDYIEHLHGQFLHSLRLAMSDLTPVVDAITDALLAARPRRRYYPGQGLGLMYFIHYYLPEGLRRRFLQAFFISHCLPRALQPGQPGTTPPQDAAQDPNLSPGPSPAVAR

Mus musculus [5] = experiment: Inhibition of 11-beta-HSD1 in mouse pharmacodynamic model assessed as inhibition of [3H]cortisone to [3H]cortisol at 10 mg/kg, po after 1 hr; assay type: functional
Mus musculus [6] = experiment: Inhibition of 11-beta-HSD1 in mouse pharmacodynamic model assessed as inhibition of [3H]cortisone to [3H]cortisol at 10 mg/kg, po after 4 hrs; assay type: functional
[7] = Plasma concentration in C57B6 mouse at 10 mg/kg; assay type: ADME, organism-based; set-up: dose 10 mg/kg
[8] = Half life in C57B6 mouse at 10 mg/kg; assay type: ADME, organism-based; set-up: dose 10 mg/kg; settings: in vivo
[9] = Oral bioavailability in C57B6 mouse at 10 mg/kg; assay type: ADME, organism-based; settings: in vivo

Chain of 11-beta-hydroxysteroid dehydrogenase 1 (Homo sapiens, UniProt P28845) (P28845 whole entry): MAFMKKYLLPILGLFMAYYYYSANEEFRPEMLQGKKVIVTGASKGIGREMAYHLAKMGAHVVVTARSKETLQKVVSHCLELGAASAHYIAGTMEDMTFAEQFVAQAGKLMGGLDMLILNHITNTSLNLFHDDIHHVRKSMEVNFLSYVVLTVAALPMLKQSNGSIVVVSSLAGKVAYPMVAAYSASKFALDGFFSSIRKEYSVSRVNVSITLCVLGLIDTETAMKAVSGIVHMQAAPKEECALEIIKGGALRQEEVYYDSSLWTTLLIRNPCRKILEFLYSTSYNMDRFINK

Structure (SMILES)	IC50 [1] [nM]	IC50 [2] [nM]	IC50 [3] [nM]	IC50 [4] [nM]	clearance [7] [mL/min/kg]	half-life [8] [h]	bioavailability [9] [%]	inhibition in vivo at 10 mg/kg (Mus musculus [5]) [%]	inhibition in vivo at 10 mg/kg (Mus musculus [6]) [%]
F[C@H]1C[C@@](c2ccc(Cl)cc2)(c2nnc(C3CC3)n2C2CC2)C1	22	> 4000	38	> 4000					
FC1(F)CC(c2ccc(Cl)cc2)(c2nnc(C3CC3)n2C2CC2)C1	35	> 4000	107	> 4000					
Fc1cccc(C2(c3nnc4n3CCCCCC4)CCC2)c1	2	> 4000	19	4000				87	68
C1C2CC3CC1CC(c1nnc(C4CC4)n1C1CC1)(C2)C3									74
Fc1ccccc1C1(c2nnc3n2CCCCCC3)CCCC1	1	> 4000	27	1270				57	18
Fc1ccccc1C1(c2nnc3n2CCCCCC3)CCC1	1	> 4000	16	< 4000				90	53
C1CCc2nnc(C34CC5CC(CC(C5)C3)C4)n2CC1	7.8	> 10000	98	> 3000				59	17
C1CCCn2c(nnc2C23CC4CC(CC(C4)C2)C3)CC1									24
FC(F)(F)c1ccccc1C1(c2nnc3n2CCCCCC3)CCC1	5	> 4000	355	> 4000					
c1ccc(C2(c3nnc4n3CCCCCC4)CCC2)cc1	1	> 4000	8	4000				88	72
c1ccc(C2(c3nnc4n3CCCCCC4)CC2)cc1	8	> 4000	172	> 4000				63	45
FC(F)(F)c1ccc(C2(c3nnc4n3CCCCCC4)CCC2)cc1	2	> 4000	115	> 4000					
Clc1ccc(C2(c3nnc4n3CCCCCC4)CC2)c(Cl)c1	2	> 4000	199	1960					
F[C@H]1C[C@](c2ccc(Cl)cc2)(c2nnc(C3CC3)n2C2CC2)C1	5	> 4000	16	> 4000	10.7	1.5	100	92	91
Cc1ccccc1C1(c2nnc3n2CCCCCC3)CCC1	1	> 4000	78	3320				23	21

Further lines, with some results ahead:

IC50 [1] [nM]	IC50 [2] [nM]	IC50 [3] [nM]	IC50 [4] [nM]	clearance [7] [mL/min/kg]	half-life [8] [h]	bioavailability [9] [%]	Structure (SMILES)	inhibition in vivo at 10 mg/kg (Mus musculus [5]) [%]	inhibition in vivo at 10 mg/kg (Mus musculus [6]) [%]
10	> 4000	57	1960				Cc1cccc(C2(c3nnc4n3CCCCCC4)CCCC2)c1	20	22
2		41					Clc1ccc(C2(c3nnc4n3CCCCCC4)CCCC2)cc1		
15	> 4000	374					Cc1ccc(C2(c3nnc4n3CCCCCC4)CCCCC2)cc1		
32	> 4000	454					Clc1ccc(C2(c3nnc4n3CCCCCC4)CCCCC2)cc1		
3	> 4000	37	> 4000				Fc1ccc(C2(c3nnc4n3CCCCCC4)CCC2)cc1	68	55
2	> 4000	25					Cc1ccc(C2(c3nnc4n3CCCCCC4)CCCC2)cc1	35	3
13	> 4000	100	1040				c1ccc(C2(c3nnc4n3CCCCCC4)CCCCC2)cc1	25	0
2	> 4000	52	> 4000				Cc1cccc(C2(c3nnc4n3CCCCCC4)CCC2)c1	17	22
1		14					Clc1ccc(C2(c3nnc4n3CCCCCC4)CCC2)cc1	91	77
43	> 4000	61	> 4000				Oc1cccc(C2(c3nnc4n3CCCCCC4)CCCC2)c1	3	21
2	> 4000	230	> 4000				Clc1ccc(C2(c3nnc4n3CCCCCC4)CC2)cc1		
1	> 4000	332	> 4000				Cc1ccc(C2(c3nnc4n3CCCCCC4)CC2)cc1		
2	> 4000	12	1040				c1ccc(C2(c3nnc4n3CCCCCC4)CCCC2)cc1	73	37
27	> 4000	494	1170				Fc1ccc(C2(c3nnc4n3CCCCCC4)CCCCC2)cc1		
8	> 4000	18	> 4000				Fc1ccc(C2(c3nnc4n3CCCCCC4)CCCC2)cc1	58	30
2	> 4000	19	2010				Cc1ccc(C2(c3nnc4n3CCCCCC4)CCC2)cc1	48	28
